Residue numbers refer to the chain shown, from its start. Read-outs that look alike come from different tables or passages of the source. One block for each compound: values may come before it.
Key:
mutant MGL = target: T1, mutant MGL (Homo sapiens, UniProt Q99685, L169S/L176S); experiment: MGL ThermoFluor assay - mutant; assay type: binding
T1 sequence (Q99685 1-303 L169S/L176S): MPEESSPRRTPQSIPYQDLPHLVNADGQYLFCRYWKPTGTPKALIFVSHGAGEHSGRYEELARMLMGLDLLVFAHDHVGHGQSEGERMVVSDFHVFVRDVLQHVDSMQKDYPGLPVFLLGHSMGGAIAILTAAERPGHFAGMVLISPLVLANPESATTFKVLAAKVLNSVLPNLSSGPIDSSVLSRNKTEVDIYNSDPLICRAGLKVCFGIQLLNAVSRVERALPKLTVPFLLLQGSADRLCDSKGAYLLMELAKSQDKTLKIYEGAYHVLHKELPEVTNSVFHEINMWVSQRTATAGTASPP
Experimental: The ThermoFluor (TF) assay is a 384-well plate-based binding assay that measures thermal stability of proteins^1,2. […] TF dye used in all experiments was 1,8-ANS (Invitrogen: A-47). Final TF assay conditions used for MGL studies were 0.07 mg/ml of mutant MGL, 100 μM ANS, 200 mM NaCl, 0.001% Tween-20 in 50 mM PIPES (pH=7.0).
Screening compound plates contained 100% DMSO compound solutions at a single concentration. […] Columns 12 and 24 were used as DMSO reference and contained no compound. […] Following compound dispension, protein and dye solutions were added to achieve the final assay volume of 3 μL.
Bar-coded assay plates were robotically loaded onto a thermostatically controlled PCR-type thermal block and then heated from 40 to 90° C. degrees at a ramp-rate of 1° C./min for all experiments. Fluorescence was measured by continuous illumination with UV light (Hamamatsu LC6), supplied via fiber optics and filtered through a band-pass filter (380-400 nm; >60D cutoff). Fluorescence emission of the entire 384-well plate was detected by measuring light intensity using a CCD camera (Sensys, Roper Scientific) filtered to detect 500±25 nm, resulting in simultaneous and independent readings of all 384 wells. A single image with 20-sec exposure time was collected at each temperature, and the sum of the pixel intensity in a given area of the assay plate was recorded vs temperature and fit to standard equations to yield the Tm^1. • 1.
For some experiments, quantitative NMR spectroscopy (qNMR) was used to measure concentration of the initial 100% DMSO compound solutions and, using the same fitting method, qKd values were determined

[1] = target: T2, purified wild type MGL (wt-MGLL 6H-11-313) (Homo sapiens, UniProt Q99685)
T2 sequence (Q99685 1-303): T1 sequence (Q99685 1-303 L169S/L176S) with S169L, S176L

[2] = ThermoFluor, compound concentration measured by qNMR, read-out: MGL mutant ThermoFluor qKd (μM) (using qNMR conc.)
[3] = ThermoFluor, compound concentration measured by qNMR, read-out: MGL mutant ThermoFluor qKd (using qNMR conc.)
[4] = ThermoFluor concentration-response, read-out: MGL mutant ThermoFluor Kd
[5] = ThermoFluor thermal stability binding assay, read-out: MGL mutant ThermoFluor Kd
[6] = compound concentration measured by qNMR, read-out: MGL mutant ThermoFluor qKd (using qNMR conc.)

Compound: NC(=O)c1cccc(-n2ccc3cc(C(=O)N4CC(N5CCN(C(=O)c6ccccc6)CC5)C4)ccc32)c1 [Cpd 594, 3-[5-({3-[4-(Phenylcarbonyl)piperazin-1-yl]azetidin-1-yl}carbonyl)-1H-indol-1-yl]benzamide]
Kd (mutant MGL; [2]): 0.743 µM
IC50 [1]: 449 nM

Compound: O=C(c1ccccc1)N1CCN(C2CN(C(=O)c3ccc4c(ccn4-c4ccc(F)cn4)c3)C2)CC1 [Cpd 596, 1-(5-Fluoropyridin-2-yl)-5-({3-[4-(phenylcarbonyl)piperazin-1-yl]azetidin-1-yl}carbonyl)-1H-indole]
Kd (mutant MGL; [3]): 0.628 µM
IC50 [1]: 543 nM

Compound: O=C(c1ccccc1)N1CCN(C2CN(C(=O)c3ccc4c(-c5ccc(C(F)(F)F)cc5)ncnc4c3)C2)CC1 [Cpd 597]
Kd (mutant MGL; [4]): 0.153 µM
IC50 [1]: 600 nM

Compound: O=C(c1ccccc1)N1CCN(C2CN(C(=O)c3ccc4nc(-c5cccc(F)c5)sc4c3)C2)CC1 [Cpd 599]
Kd (mutant MGL; [5]): 0.481 µM
IC50 [1]: 1030 nM

Compound: O=C(c1ccccc1)N1CCN(C2CN(C(=O)c3cc(-c4cccc(F)c4)c4[nH]ccc4c3)C2)CC1 [Cpd 600]
Kd (mutant MGL; [2]): 1.97 µM
IC50 [1]: 1150 nM

Compound: O=C(c1ccccc1)N1CCN(C2CN(C(=O)c3cccc4[nH]c(-c5ccccc5)nc34)C2)CC1 [Cpd 601]
Kd (mutant MGL; [5]): 0.527 µM
IC50 [1]: 1550 nM

Compound: O=C(c1ccccc1)N1CCN(C2CN(C(=O)c3cccc4[nH]c(-c5ccc(F)cc5)nc34)C2)CC1 [Cpd 602]
Kd (mutant MGL; [5]): 0.5 µM
IC50 [1]: 1720 nM

Compound: O=C(c1ccccc1)N1CCN(C2CN(C(=O)c3ccc4c(ccn4-c4ccncc4)c3)C2)CC1 [Cpd 603, 5-({3-[4-(Phenylcarbonyl)piperazin-1-yl]azetidin-1-yl}carbonyl)-1-pyridin-4-yl-1H-indole]
Kd (mutant MGL; [3]): 0.448 µM
IC50 [1]: 1720 nM

Compound: O=C(c1ccccc1)N1CCN(C2CN(C(=O)c3cc4cc(-c5ccccc5)ccc4o3)C2)CC1 [Cpd 605]
Kd (mutant MGL; [5]): 1.89 µM
IC50 [1]: 1860 nM

Compound: O=C(c1ccccc1)N1CCN(C2CN(C(=O)c3cccc4[nH]c(-c5ccc(Cl)cc5)nc34)C2)CC1 [Cpd 607]
Kd (mutant MGL; [5]): 1 µM
IC50 [1]: 2900 nM

Compound: O=C(c1ccccc1)N1CCN(C2CN(C(=O)c3cccc4[nH]c(-c5ccccc5Cl)nc34)C2)CC1 [Cpd 608]
Kd (mutant MGL; [5]): 1.67 µM
IC50 [1]: 4170 nM

Compound: O=C(c1ccccc1)N1CCN(C2CN(C(=O)c3cccc4[nH]c(-c5cccc(F)c5)nc34)C2)CC1 [Cpd 609]
Kd (mutant MGL; [5]): 1 µM
IC50 [1]: 4330 nM

Compound: O=C(c1ccc(-n2cnc3ccccc32)cc1)N1CCN(C2CN(C(=O)c3ccccc3)C2)CC1 [Cpd 610]
Kd (mutant MGL; [4]): 1.29 µM
IC50 [1]: 10300 nM

Compound: O=C(c1ccc2[nH]c(-c3ccccc3)nc2c1)N1CCN(C2CN(C(=O)c3ccccc3)C2)CC1 [Cpd 611]
Kd (mutant MGL; [4]): 5.15 µM
IC50 [1]: 13300 nM

Compound: Cc1cc(-n2ccc3cc(C(=O)N4CC(N5CCN(C(=O)c6ccccc6)CC5)C4)ccc32)ccn1 [Cpd 630, 1-(2-Methylpyridin-4-yl)-5-({3-[4-(phenylcarbonyl)piperazin-1-yl]azetidin-1-yl}carbonyl)-1H-indole]
Kd (mutant MGL; [3]): 0.195 µM
IC50 [1]: 714 nM

Compound: CCCCC/C=C\C/C=C\CCCCCCCC(=O)N1CC(N2CCN(C(=O)c3nccs3)CC2)C1 [Cpd 638]
Kd (mutant MGL; [4]): 0.172 µM
Kd (mutant MGL; [3]): 0.264 µM
IC50 [1]: 189 nM

Compound: CCCCC/C=C\C/C=C\C/C=C\C/C=C\CCCC(=O)N1CC(N2CCN(C(=O)c3nccs3)CC2)C1 [Cpd 639]
Kd (mutant MGL; [4]): 0.132 µM
IC50 [1]: 419 nM

Compound: CCCCCCCCCCCCCCCCCCCC(=O)N1CC(N2CCN(C(=O)c3nccs3)CC2)C1 [Cpd 640]
Kd (mutant MGL; [4]): 25 µM
IC50 [1]: 15900 nM

Compound: N#Cc1ccc(N2CCC(C(=O)N3CC(N4CCN(C(=O)c5nccs5)CC4)C3)CC2)cc1 [Cpd 646]
Kd (mutant MGL; [4]): 1.61 µM
IC50 [1]: 7160 nM

Compound: N#Cc1ccc(N2CCC(C(=O)N3CC(N4CCN(C(=O)c5cscn5)CC4)C3)CC2)cc1 [Cpd 647]
Kd (mutant MGL; [5]): > 31.2 µM
IC50 [1]: 12700 nM

Compound: O=C(c1ccc(Oc2ncc(C(F)(F)F)cc2Cl)cc1)N1CC(N2CCN(C(=O)c3cscn3)CC2)C1 [Cpd 720]
Kd (mutant MGL; [4]): 0.347 µM
IC50 [1]: 173 nM

Compound: COc1ccc2c(C)c(C(=O)N3CC(N4CCN(C(=O)c5nccs5)CC4)C3)oc2c1 [Cpd 721]
Kd (mutant MGL; [4]): 1.14 µM
IC50 [1]: 173 nM

Compound: O=C(c1ccc[nH]1)N1CC(N2CCN(C(=O)c3cc4cc(C(F)(F)F)ccc4s3)CC2)C1 [Cpd 722, 1-[1-(1H-Pyrrol-2-ylcarbonyl)azetidin-3-yl]-4-{[5-(trifluoromethyl)-1-benzothiophen-2-yl]carbonyl}piperazine]
Kd (mutant MGL; [4]): 0.082 µM
IC50 [1]: 180 nM

These reach a lower IC50 [1]. Values come first.

Kd (mutant MGL; [4]): 0.145 µM
IC50 [1]: 53 nM
Compound: O=C(c1ccccc1)N1CCN(C2CN(C(=O)c3ccc4c(ccn4-c4ccc(Cl)cn4)c3)C2)CC1 [Cpd 629, 1-(5-Chloropyridin-2-yl)-5-({3-[4-(phenylcarbonyl)piperazin-1-yl]azetidin-1-yl}carbonyl)-1H-indole]

Kd (mutant MGL; [6]): 0.052 µM
IC50 [1]: 40 nM
Compound: O=C(c1ccccc1)N1CCN(C2CN(C(=O)c3cc4ccn(-c5ccc(F)cc5)c4cc3F)C2)CC1 [Cpd 631]

Kd (mutant MGL; [5]): 0.157 µM
IC50 [1]: 62 nM
Compound: COc1cc(-n2ccc3cc(C(=O)N4CC(N5CCN(C(=O)c6ccccc6)CC5)C4)ccc32)ccc1C#N [Cpd 633]

Kd (mutant MGL; [6]): 0.001 µM
IC50 [1]: 6 nM
Compound: COc1c(C(=O)N2CC(N3CCN(C(=O)c4nccs4)CC3)C2)sc2cc(C(F)(F)F)ccc12 [Cpd 649, 1-(1-{[3-Methoxy-6-(trifluoromethyl)-1-benzothiophen-2-yl]carbonyl}azetidin-3-yl)-4-(1,3-thiazol-2-ylcarbonyl)piperazine]

Kd (mutant MGL; [3]): 0.101 µM
IC50 [1]: 8 nM
Compound: O=C(c1sc2cc(C(F)(F)F)ccc2c1Cl)N1CC(N2CCN(C(=O)C(F)(F)F)CC2)C1 [Cpd 656, 1-(1-{[3-Chloro-6-(trifluoromethyl)-1-benzothiophen-2-yl]carbonyl}azetidin-3-yl)-4-(trifluoroacetyl)piperazine]

Kd (mutant MGL; [6]): 0.018 µM
IC50 [1]: 16 nM
Compound: O=C(c1ccc2nc(N3CCC(F)(F)CC3)sc2c1)N1CC(N2CCN(C(=O)c3nccs3)CC2)C1 [Cpd 671]

Kd (mutant MGL; [3]): 0.048 µM
IC50 [1]: 47 nM
Compound: O=C(c1ccc(COCC(F)(F)F)cc1)N1CC(N2CCN(C(=O)c3nccs3)CC2)C1 [Cpd 694]

Kd (mutant MGL; [3]): 0.085 µM
IC50 [1]: 65 nM
Compound: O=C1c2ccccc2-c2ccc(C(=O)N3CC(N4CCN(C(=O)c5nccs5)CC4)C3)cc21 [Cpd 698]

Kd (mutant MGL; [4]): 0.017 µM
IC50 [1]: 96 nM
Compound: Cc1c(C(=O)N2CCN(C3CN(C(=O)c4nccs4)C3)CC2)sc2cc(C(F)(F)F)ccc12 [Cpd 704]

Kd (mutant MGL; [4]): 0.001 µM
IC50 [1]: 103 nM
Compound: CC1(C)C=C(c2ccc(C(=O)N3CC(N4CCN(C(=O)c5nccs5)CC4)C3)cc2)CC(C)(C)O1 [Cpd 706]

Kd (mutant MGL; [4]): 0.002 µM
IC50 [1]: 105 nM
Compound: Cc1ccc2c(C(F)(F)F)c(C(=O)N3CC(N4CCN(C(=O)c5nccs5)CC4)C3)sc2c1 [Cpd 707, 1-(1-{[6-Methyl-3-(trifluoromethyl)-1-benzothiophen-2-yl]carbonyl}azetidin-3-yl)-4-(1,3-thiazol-2-ylcarbonyl)piperazine]

Kd (mutant MGL; [4]): 0.015 µM
IC50 [1]: 118 nM
Compound: O=C(Nc1ccc(C(=O)N2CC(N3CCN(C(=O)c4nccs4)CC3)C2)cc1)C1CCCCC1 [Cpd 709]

Kd (mutant MGL; [3]): 0.197 µM
IC50 [1]: 123 nM
Compound: O=C(c1ccc2c(=O)c3ccccc3oc2c1)N1CC(N2CCN(C(=O)c3nccs3)CC2)C1 [Cpd 710]

Kd (mutant MGL; [6]): 0.05 µM
IC50 [1]: 127 nM
Compound: O=C(c1ccc2c(ccn2CC(F)F)c1)N1CC(N2CCN(C(=O)c3nccs3)CC2)C1 [Cpd 711, 1-(2,2-Difluoroethyl)-5-({3-[4-(1,3-thiazol-2-ylcarbonyl)piperazin-1-yl]azetidin-1-yl}carbonyl)-1H-indole]

Kd (mutant MGL; [4]): 0.028 µM
IC50 [1]: 127 nM
Compound: Cc1ccc2c(C(F)(F)F)c(C(=O)N3CC(N4CCN(C(=O)c5cscn5)CC4)C3)sc2c1 [Cpd 712, 1-(1-{[6-Methyl-3-(trifluoromethyl)-1-benzothiophen-2-yl]carbonyl}azetidin-3-yl)-4-(1,3-thiazol-4-ylcarbonyl)piperazine]

Kd (mutant MGL; [5]): 0.1 µM
IC50 [1]: 135 nM
Compound: O=C(c1cccc(NCc2ccccc2)c1)N1CC(N2CCN(C(=O)c3nccs3)CC2)C1 [Cpd 713]

Kd (mutant MGL; [4]): 0.005 µM
IC50 [1]: 135 nM
Compound: O=C(c1nccs1)N1CCN(C2CN(C(=O)c3sc4cc(F)ccc4c3C3CC3)C2)CC1 [Cpd 714, 1-{1-[(3-Cyclopropyl-6-fluoro-1-benzothiophen-2-yl)carbonyl]azetidin-3-yl}-4-(1,3-thiazol-2-ylcarbonyl)piperazine]

Kd (mutant MGL; [4]): 0.167 µM
IC50 [1]: 135 nM
Compound: O=C(c1ccc(Oc2cccc(F)n2)cc1)N1CC(N2CCN(C(=O)c3nccs3)CC2)C1 [Cpd 715]

Kd (mutant MGL; [4]): 0.067 µM
IC50 [1]: 147 nM
Compound: O=C(c1ccc(Oc2ccc(Cl)cn2)cc1)N1CC(N2CCN(C(=O)c3nccs3)CC2)C1 [Cpd 717]

Kd (mutant MGL; [5]): 0.072 µM
IC50 [1]: 148 nM
Compound: O=C(c1ccc2nc(C(F)(F)F)sc2c1)N1CC(N2CCN(C(=O)c3nccs3)CC2)C1 [Cpd 718]

Kd (mutant MGL; [3]): 0.119 µM
IC50 [1]: 154 nM
Compound: Cc1c(C(=O)N2CC(N3CCN(C(=O)c4nccs4)CC3)C2)[nH]c2ccc(F)cc12 [Cpd 719]

Source: patent publication US8362000B2, “Azetidinyl diamides as monoacylglycerol lipase inhibitors” (Janssen Pharmaceutica NV, priority 2009, dated 2013)
